In patent US8431585B2, “Use of inhibitors of the EGFR-mediated signal transduction for the treatment of benign prostatic hyperplasia (BPH)/prostatic hypertrophy” (Boehringer Ingelheim Pharma GmbH & Co. KG, priority 2002, dated 2013):
Marks after values point to notes of the source that are not given here.

Tested on: prostate
Test: Prostate-reducing activity: prostate weight of male rats after 14-15 days of once-daily oral treatment with an EGF-R-TK inhibitor
Assay type: in vivo
Experimental: The active substance is administered once a day as a suspension through an oesophageal tube. After the test period has ended the animals are killed, their prostates are removed and weighed.

[1] = 10 mg/kg once a day by oesophageal tube, length of treatment 15 days
[2] = 30 mg/kg once a day by oesophageal tube, length of treatment 15 days
[3] = 100 mg/kg once a day by oesophageal tube, length of treatment 15 days
[4] = 10 mg/kg once a day by oesophageal tube, length of treatment 14 days
[5] = 30 mg/kg once a day by oesophageal tube, length of treatment 14 days
[6] = 100 mg/kg once a day by oesophageal tube, length of treatment 14 days

SMILES | average absolute weight (prostate) [1] | average relative weight [% of body weight] (prostate) [1] | average relative weight [% of the brain] (prostate) [1] | average absolute weight (prostate) [2] | average relative weight [% of body weight] (prostate) [2] | average relative weight [% of the brain] (prostate) [2] | average absolute weight (prostate) [3] | average relative weight [% of body weight] (prostate) [3] | average relative weight [% of the brain] (prostate) [3] | average absolute weight (prostate) [4] | average relative weight [% of body weight] (prostate) [4] | average relative weight [% of the brain] (prostate) [4] | average absolute weight (prostate) [5] [g] | average relative weight [% of body weight] (prostate) [5] | average relative weight [% of the brain] (prostate) [5] | average absolute weight (prostate) [6] | average relative weight [% of body weight] (prostate) [6] | average relative weight [% of the brain] (prostate) [6]
CN(C)CC=CC(=O)Nc1cc2c(Nc3ccc(F)c(Cl)c3)ncnc2cc1OC[C@@H]1CCCO1 [compound c, 4-[(3-chloro-4-fluorophenyl)amino]-6-{[4-(N,N-dimethylamino)-1-oxo-2-buten-1-yl]amino}-7-[(S)-(tetrahydrofuran-2-yl)methoxy]-quinazoline] | 0.3854* g | 0.1681 % of body weight | 19.67* % of the brain | 0.2242* g | 0.1117* % of body weight | 11.50* % of the brain | 0.1463* g | 0.0892* % of body weight | 7.63* % of the brain | – | – | – | – | – | – | – | – | –
CN(CC=CC(=O)Nc1cc2c(Nc3ccc(F)c(Cl)c3)ncnc2cc1OC1CCCC1)C1CC1 [compound b, 4-[(3-chloro-4-fluorophenyl)amino]-6-{[4-(N-cyclopropyl-N-methyl-amino)-1-oxo-2-buten-1-yl]amino}-7-cyclopentyloxy-quinazoline] | – | – | – | – | – | – | – | – | – | 0.3983* g | 0.1622* % of body weight | 20.23* % of the brain | 0.3989 | 0.1697 % of body weight | 20.71* % of the brain | 0.1848* g | 0.1191* % of body weight | 10.13* % of the brain
